Measurements reported in patent US4285939A, “Cephalosporin derivatives, and antibacterial drugs containing the derivatives” (Eisai Co., Ltd., priority 1979, dated 1981).
Like-named read-outs stand apart in the source and are kept apart here.

How the values were obtained:
[1] = system: Klebsiella pneumoniae EK-6; assay: Minimal inhibitory concentration, standard agar dilution method (Klebsiella pneumoniae); format: cell-based
Procedure: (§1) Minimal inhibitory concentration (MIC) was determined by the standard agar dilution method of the Japan Society of Chemotherapy.
(§2) The compounds described in Examples 1, 2 and 5 were dissolved in sterilized water; the compound described in Example 4 was dissolved in acetone-water (1:1); and the control compounds, cephaloglycin and cephalexin monohydrate, were dissolved in a 3% sodium hydrogen carbonate solution.
(§3) Serial two-fold dilutions were made from the above solutions.
(§4) One-ml aliquots of each dilution were mixed with 9 ml of Heart influsion agar in petri-dishes to make agar plates containing the compound at serially diluted concentrations. After agar hardened, plates were put in an incubator at 37° C. for 1.5-2 hours with the lids slightly open to evaporate acetone off the plates.
(§5) Test organisms were grown for 18 hours at 37° C. in Trypticase Soy broth and diluted in saline to approximately 10^6 colony forming units per ml. A loopful of each cell suspension was applied on the agar plate mentioned above and the plates were incubated for 18 hours at 37° C. before MIC was determined.
(§6) MIC values of the compounds described in Examples 1, 2 and 5 were determined as their sodium salts and the compound described in Example 4 was determined as a free carboxylic acid.

[2] = system: Proteus morganii EP-14; assay: Minimal inhibitory concentration, standard agar dilution method (Proteus morganii); format: cell-based; conditions: Morganella morganii
Procedure: as §1, §2, §3, §4, §5, §6

[3] = system: Serratia marcescens ES-75; assay: Minimal inhibitory concentration, standard agar dilution method (Serratia marcescens); format: cell-based
Procedure: as §1, §2, §3, §4, §5, §6

[4] = system: Escherichia coli NIHJ; assay: Minimal inhibitory concentration, standard agar dilution method (Escherichia coli); format: cell-based
Procedure: as §1, §2, §3, §4, §5, §6

[5] = system: Pseudomonas aeruginosa EP-172; assay: Minimal inhibitory concentration, standard agar dilution method (Pseudomonas aeruginosa); format: cell-based
Procedure: as §1, §2, §3, §4, §5, §6

[6] = system: Staphylococcus aureus 209P; assay: Minimal inhibitory concentration, standard agar dilution method (Staphylococcus aureus); format: cell-based
Procedure: as §1, §2, §3, §4, §5, §6

[7] = acute toxicity test (mouse, oral); conditions: in vivo
Source text: Moreover, it has been confirmed that the compounds of this invention show low toxicity in the toxicity test. For example, the acute toxicity values [LD50 (mouse, oral)] for the following compounds were over 5 g/kg: […]

[8] = EK6, Klebsiella pneumoniae EK-6, agar dilution, 18 hours at 37° C., Examples 1, 2, 5 as sodium salts, Example 4 as free acid, read-out: MIC
[9] = EP14, Proteus morganii EP-14, agar dilution, 18 hours at 37° C., Examples 1, 2, 5 as sodium salts, Example 4 as free acid, read-out: MIC
[10] = ES75, Serratia marcescens ES-75, agar dilution, 18 hours at 37° C., Examples 1, 2, 5 as sodium salts, Example 4 as free acid, read-out: MIC
[11] = Escherichia coli NIHJ, agar dilution, 18 hours at 37° C., Examples 1, 2, 5 as sodium salts, Example 4 as free acid, read-out: MIC
[12] = EP172, Pseudomonas aeruginosa EP-172, agar dilution, 18 hours at 37° C., Examples 1, 2, 5 as sodium salts, Example 4 as free acid, read-out: MIC
[13] = Staphylococcus aureus 209P, agar dilution, 18 hours at 37° C., Examples 1, 2, 5 as sodium salts, Example 4 as free acid, read-out: MIC

| SMILES | MIC [1, 8] [µg/mL] | MIC [2, 9] [µg/mL] | MIC [3, 10] [µg/mL] | MIC [4, 11] [µg/mL] | MIC [5, 12] [µg/mL] | MIC [6, 13] [µg/mL] | MIC ([1]; Klebsiella pneumoniae, EK6, 18 h) [µg/mL] | MIC ([2]; EP14, 18 h) [µg/mL] | MIC ([3]; Serratia marcescens, ES75, 18 h) [µg/mL] | MIC ([4]; Escherichia coli, 18 h) [µg/mL] | MIC ([5]; Pseudomonas aeruginosa, EP172, 18 h) [µg/mL] | MIC ([6]; Staphylococcus aureus, 209P, 18 h) [µg/mL] | LD50 [7] [mg/kg] |
| --- | --- | --- | --- | --- | --- | --- | --- | --- | --- | --- | --- | --- | --- |
| CC(=O)OCC1=C(C(=O)O)N2C(=O)[C@@H](NC(=O)[C@H](NC(=O)c3coc4cc(OC(C)=O)c(OC(C)=O)cc4c3=O)c3ccccc3)[C@H]2SC1 [Example 1, 7β-[D-2-(6,7-Diacetoxychromone-3-carboxamido)-2-phenylacetamido]-3-acetoxymethyl-3-cephem-4-carboxylic acid] | ≤ 0.1 | 50 | 0.4 | 1.56 | 0.8 | 3.13 | – | – | – | – | – | – | – |
| CC1=C(C(=O)O)N2C(=O)[C@@H](NC(=O)[C@H](N)c3ccccc3)[C@H]2SC1 [Cephalexin mono-hydrate, cephalexin monohydrate, reference compound] | – | – | – | – | – | – | 3.13 | > 100 | > 100 | 6.25 | > 100 | 1.56 | – |
| CC(=O)OCC1=C(C(=O)O)N2C(=O)[C@@H](NC(=O)[C@H](N)c3ccccc3)[C@H]2SC1 [Cephaloglycin, cephaloglycin, reference compound] | 1.56 | 25 | > 100 | 3.13 | > 100 | 0.8 | – | – | – | – | – | – | – |
| CC(=O)OCC1=C(C(=O)O)N2C(=O)[C@@H](NC(=O)[C@H](NC(=O)c3coc4c(O)c(O)ccc4c3=O)c3ccccc3)[C@H]2SC1 [Example 5, 7β-[D-2-(7,8-Dihydroxychromone-3-carboxamido)-2-phenylacetamido]-3-acetoxymethyl-3-cephem-4-carboxylic acid] | 0.2 | 12.5 | 1.56 | 3.13 | 1.56 | 1.56 | – | – | – | – | – | – | – |
| CC(=O)OCC1=C(C(=O)O)N2C(=O)[C@@H](NC(=O)[C@H](NC(=O)c3coc4c(OC(C)=O)c(OC(C)=O)ccc4c3=O)c3ccccc3)[C@H]2SC1 [Example 4, 7β-[D-2-(7,8-Diacetoxychromone-3-carboxamido)-2-phenylacetamido]-3-acetoxymethyl-3-cephem-4-carboxylic acid] | ≤ 0.1 | 3.13 | 0.8 | 0.8 | 1.56 | 1.56 | – | – | – | – | – | – | – |
| CC(=O)OCC1=C(C(=O)O)N2C(=O)[C@@H](NC(=O)[C@H](NC(=O)c3coc4cc(O)c(O)cc4c3=O)c3ccccc3)[C@H]2SC1 [Example 2, 7β-[D-2-(6,7-Dihydroxychromone-3-carboxamido)-2-phenylacetamido]-3-acetoxymethyl-3cephem-4-carboxylic acid] | ≤ 0.1 | 12.5 | 0.2 | 0.8 | 0.8 | 1.56 | – | – | – | – | – | – | > 5000 |
